Reference: ChEMBL document CHEMBL1201862, “PubChem BioAssay data set” (2004)
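Dose response: 5 concentrations. Exposure: 48 h. Format: 96-well plates. Endpoint: linear interpolation; highest concentration if not reached. GI50: concentration for 50% inhibition of growth.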 Active and inactive are the calls of the source. Rule as the data show it: active = GI50 up to about 1.1 µM and inactive = higher.

How the values were obtained:
Experiment in all cases: NCI anticancer screen, dose series, 48 h
T47D = tested on: T47D
UACC-257 = tested on: UACC-257
UO-31 = tested on: UO-31
SNB-75 = tested on: SNB-75
NCI-H23 = tested on: NCI-H23
SN12C = tested on: SN12C
CAKI-1 = tested on: CAKI-1
HCC 2998 = tested on: HCC 2998
UACC-62 = tested on: UACC-62
RXF 393 = tested on: RXF 393
EKVX = tested on: EKVX
MDA-N = tested on: MDA-N
SF-539 = tested on: SF-539
M14 = tested on: M14
A549 = tested on: A549
HOP-62 = tested on: HOP-62
MDA-MB-435 = tested on: MDA-MB-435
IGROV-1 = tested on: IGROV-1
MCF7 = tested on: MCF7
SK-OV-3 = tested on: SK-OV-3

| SMILES | GI50 (T47D) | GI50 (UACC-257) | GI50 (UO-31) | GI50 (SNB-75) | GI50 (NCI-H23) | GI50 (SN12C) | GI50 (CAKI-1) | GI50 (HCC 2998) | GI50 (UACC-62) | GI50 (RXF 393) | GI50 (EKVX) | GI50 (MDA-N) | GI50 (SF-539) | GI50 (M14) | GI50 (A549) | GI50 (HOP-62) | GI50 (MDA-MB-435) | GI50 (IGROV-1) | GI50 (MCF7) | GI50 (SK-OV-3) |
| --- | --- | --- | --- | --- | --- | --- | --- | --- | --- | --- | --- | --- | --- | --- | --- | --- | --- | --- | --- | --- |
| CN(C)CCNC(=O)c1cccc2nc3cccc(F)c3nc12 | 3.31 µM (inactive) | 1.39 µM (inactive) | 0.883 µM (active) | 2.62 µM (inactive) | 1.5 µM (inactive) | 1.02 µM (active) | 0.973 µM (active) | 1.49 µM (inactive) | 2.88 µM (inactive) | 1.54 µM (inactive) | 2.16 µM (inactive) | 1.46 µM (inactive) | 1.86 µM (inactive) | 2.01 µM (inactive) | 0.53 µM (active) | 1.97 µM (inactive) | 1.56 µM (inactive) | 1.6 µM (inactive) | 1.48 µM (inactive) |  |
| CC(=O)Nc1sc(Br)cc1S(=O)(=O)c1ccc(Cl)cc1 | 32.1 µM (inactive) | 29.9 µM (inactive) | 22.5 µM (inactive) | 28.2 µM (inactive) | 29.4 µM (inactive) | 71.9 µM (inactive) | > 100 µM (inactive) | 19.4 µM (inactive) | 38.1 µM (inactive) | 20 µM (inactive) | 37.2 µM (inactive) | 43.5 µM (inactive) | 0.731 µM (active) | 15.2 µM (inactive) | 29.2 µM (inactive) |  | 28.1 µM (inactive) | 44.4 µM (inactive) | 12.8 µM (inactive) | 43.1 µM (inactive) |
| CC1(C)CC(=O)/C(=C/C2CCNC2=S)C(=O)N1 (configuration not stated) | > 100 µM (inactive) | > 100 µM (inactive) | > 100 µM (inactive) | > 100 µM (inactive) | > 100 µM (inactive) | 82.4 µM (inactive) | > 100 µM (inactive) | > 100 µM (inactive) | > 100 µM (inactive) |  | > 100 µM (inactive) | > 100 µM (inactive) | > 100 µM (inactive) | > 100 µM (inactive) | > 100 µM (inactive) | > 100 µM (inactive) | > 100 µM (inactive) | > 100 µM (inactive) | > 100 µM (inactive) | > 100 µM (inactive) |
| Cn1nc(-c2ccccc2)c2c(-c3ccccc3)c3cc(Cl)ccc3nc21 | > 100 µM (inactive) | > 100 µM (inactive) | > 100 µM (inactive) | > 100 µM (inactive) | > 100 µM (inactive) | > 100 µM (inactive) | > 100 µM (inactive) | > 100 µM (inactive) | > 100 µM (inactive) | > 100 µM (inactive) | > 100 µM (inactive) | > 100 µM (inactive) |  | > 100 µM (inactive) | > 100 µM (inactive) | > 100 µM (inactive) | > 100 µM (inactive) | > 100 µM (inactive) | 82 µM (inactive) | > 100 µM (inactive) |
| Cc1nc2c(=S)[nH]ncc2[nH]1 | > 100 µM (inactive) | > 100 µM (inactive) | > 100 µM (inactive) | > 100 µM (inactive) | > 100 µM (inactive) | > 100 µM (inactive) | > 100 µM (inactive) | > 100 µM (inactive) | > 100 µM (inactive) |  | > 100 µM (inactive) | > 100 µM (inactive) | > 100 µM (inactive) | > 100 µM (inactive) | > 100 µM (inactive) | > 100 µM (inactive) | > 100 µM (inactive) | > 100 µM (inactive) | > 100 µM (inactive) | > 100 µM (inactive) |
| CCOC(=O)c1nnc2c(C#N)c(-c3ccccc3)c(C)n2c1N | 53.7 µM (inactive) | 25.4 µM (inactive) | 33.4 µM (inactive) |  | 38.3 µM (inactive) | 37.8 µM (inactive) | 52.6 µM (inactive) | 32.5 µM (inactive) | 23.9 µM (inactive) | 98.4 µM (inactive) | 38 µM (inactive) | 27 µM (inactive) | 30.9 µM (inactive) | 34.9 µM (inactive) | 39.9 µM (inactive) | 85.7 µM (inactive) | 32 µM (inactive) | 22.2 µM (inactive) | 39.4 µM (inactive) | 23.9 µM (inactive) |
| CC(=O)OC12CC(C(F)(F)F)(C(F)(F)F)OC1(OC(C)=O)CC(C(F)(F)F)(C(F)(F)F)O2 (configuration not stated) | 1.34 µM (inactive) | 3.13 µM (inactive) | 1.36 µM (inactive) | 11.1 µM (inactive) | 1.23 µM (inactive) | 4.66 µM (inactive) |  | 9.08 µM (inactive) | 2.66 µM (inactive) | 11.5 µM (inactive) |  | 5.92 µM (inactive) | 2.07 µM (inactive) | 3.72 µM (inactive) | 1.26 µM (inactive) | 25.4 µM (inactive) | 2.13 µM (inactive) | 1.41 µM (inactive) | 0.426 µM (active) | 4.94 µM (inactive) |
| CCOc1cc(NC(C)=O)ccc1C(=O)NN1C(=O)C(Oc2ccccc2)C1c1ccccc1 (configuration not stated) | 44.4 µM (inactive) | > 100 µM (inactive) |  | 92.3 µM (inactive) | > 100 µM (inactive) | > 100 µM (inactive) | 52.4 µM (inactive) | > 100 µM (inactive) | 45 µM (inactive) | 70.5 µM (inactive) | > 100 µM (inactive) | > 100 µM (inactive) | 78 µM (inactive) |  |  | > 100 µM (inactive) | > 100 µM (inactive) | > 100 µM (inactive) | 15.1 µM (inactive) | > 100 µM (inactive) |
| N#C[BH2-][n+]1cn(C2CC(O)C(COP(=O)(O)OC3CC(n4cnc5c(=O)[nH]c(N)nc54)OC3CO)O2)c2nc(N)[nH]c(=O)c21 (configuration not stated) | > 100 µM (inactive) | > 100 µM (inactive) | > 100 µM (inactive) | > 100 µM (inactive) | > 100 µM (inactive) | > 100 µM (inactive) | > 100 µM (inactive) | > 100 µM (inactive) | > 100 µM (inactive) | 97.3 µM (inactive) | > 100 µM (inactive) | > 100 µM (inactive) | > 100 µM (inactive) | > 100 µM (inactive) | > 100 µM (inactive) | 84.7 µM (inactive) | > 100 µM (inactive) | 22 µM (inactive) | 39.5 µM (inactive) |  |
| CCOC(=O)c1c(SCCN2CCOCC2)n(-c2ccccc2)c(=S)n(-c2ccccc2)c1=O | 31.8 µM (inactive) | 25.8 µM (inactive) | > 100 µM (inactive) | 76.2 µM (inactive) | 32.4 µM (inactive) | > 100 µM (inactive) |  | > 100 µM (inactive) | 49.8 µM (inactive) | 18.6 µM (inactive) |  | 36.5 µM (inactive) |  | 44.8 µM (inactive) | > 100 µM (inactive) |  | 47.2 µM (inactive) | 42.5 µM (inactive) | 21.2 µM (inactive) |  |
| CCN(CC)Cc1ccc(Nc2c3ccccc3nc3ccccc23)cc1 | 4.16 µM (inactive) | 1.71 µM (inactive) | 1.9 µM (inactive) |  | 1.99 µM (inactive) | 2.31 µM (inactive) | 1.41 µM (inactive) | 1.08 µM (active) | 1.81 µM (inactive) | 1.72 µM (inactive) | 3.3 µM (inactive) | 1.53 µM (inactive) | 1.8 µM (inactive) | 1.77 µM (inactive) | 1.28 µM (inactive) | 2.38 µM (inactive) | 2.04 µM (inactive) | 3 µM (inactive) | 1.71 µM (inactive) | 2 µM (inactive) |
| N#Cc1ncn(-c2ccccc2)c1N | > 100 µM (inactive) | > 100 µM (inactive) | > 100 µM (inactive) | > 100 µM (inactive) | > 100 µM (inactive) | > 100 µM (inactive) | > 100 µM (inactive) | > 100 µM (inactive) | > 100 µM (inactive) |  | > 100 µM (inactive) | > 100 µM (inactive) | > 100 µM (inactive) | > 100 µM (inactive) | > 100 µM (inactive) | > 100 µM (inactive) | > 100 µM (inactive) | > 100 µM (inactive) | > 100 µM (inactive) | > 100 µM (inactive) |
| CCOC1OC(CO[Si](C)(C)C(C)(C)C)C(O)CC1n1ccc(=O)[nH]c1=O (configuration not stated) | 52 µM (inactive) | > 100 µM (inactive) | > 100 µM (inactive) | > 100 µM (inactive) | > 100 µM (inactive) | > 100 µM (inactive) | 56.4 µM (inactive) | > 100 µM (inactive) | > 100 µM (inactive) | 30.8 µM (inactive) | > 100 µM (inactive) | > 100 µM (inactive) | 75.7 µM (inactive) | 26.8 µM (inactive) | 51.5 µM (inactive) |  | > 100 µM (inactive) | 21.5 µM (inactive) | 31.5 µM (inactive) |  |
| O=C1c2ccccc2C2(c3ccc(F)cc3)NCCN12 (configuration not stated) | > 100 µM (inactive) | > 100 µM (inactive) | > 100 µM (inactive) | > 100 µM (inactive) | > 100 µM (inactive) | > 100 µM (inactive) | > 100 µM (inactive) | > 100 µM (inactive) | > 100 µM (inactive) | > 100 µM (inactive) | > 100 µM (inactive) | > 100 µM (inactive) |  | > 100 µM (inactive) | > 100 µM (inactive) | > 100 µM (inactive) | > 100 µM (inactive) | > 100 µM (inactive) | > 100 µM (inactive) | > 100 µM (inactive) |
| Cc1cc2c(cc1C)C(=O)/C(=C/c1ccccc1C(=O)O)C2 | 47.8 µM (inactive) | > 100 µM (inactive) | 50.6 µM (inactive) | 30 µM (inactive) | 19.6 µM (inactive) | 45.2 µM (inactive) | 72.4 µM (inactive) | 27.4 µM (inactive) | 54.7 µM (inactive) | > 100 µM (inactive) | 50.7 µM (inactive) | 47.8 µM (inactive) | 18.7 µM (inactive) | > 100 µM (inactive) | 67.5 µM (inactive) | 42.4 µM (inactive) | 34.8 µM (inactive) | > 100 µM (inactive) | 50 µM (inactive) |  |
